# According to patent publication US11439625B2, “Combination therapy for proliferative diseases” (Avexxin AS, priority 2016, dated 2022):
# Tested on: MDA-MB-468 cell line
# Test: Resazurin viability assay
# Format: cell-based
# Conditions: co-treatment with BEZ235, sub-toxic doses combined, 24 hrs, MDA-MB-468 cells (FIG. 1)
# Protocol: Cell Culture. The MDA-MB-468 cell line was from ATCC. This cell line was established from a pleural effusion of patient with metastatic breast adenocarcinoma. The cells were maintained in RPMI medium supplemented with 10% (v/v) FBS, 0.3 mg/mL L-glutamine, and 0.1 mg/mL gentamicin at 37° C. in 5% CO2. Sub-culture using trypsin-EDTA was performed every 3-4 days with a split ratio of 1:3-1:6 to ensure actively proliferating cells.
# Resazurin Viability Assay. Cells were seeded in fully supplemented medium at a density of 7 000 cells per well in 96 well plates. After 24 hrs of cultivation, when the cells were ˜60% confluent, the medium was replaced with serum free medium to ensure synchronization of the cells and to increase cell sensitivity to treatment. Following 16 hrs of serum starvation, the medium was replaced with fresh serum free medium with or without Compounds 1 and 2 (Avexxin, Norway), and NVP-BEZ235 (Cayman Chemicals, US) or solvent (DMSO, Sigma Aldrich, US). The cells were observed under the microscope to evaluate possible morphology changes and signs of stress before the addition of resazurin according to the manufacturers instructions (RnD Systems, UK). Resazurin was metabolized for 2 hrs (37° C., 5% CO2) before fluorescence was read at 544 nm excitation and 590 nm emission wavelengths (BioTek Synergy HT).
smiles,measurement,setting,value
CCCCCCCOc1ccc(OCC(=O)c2nc(C(=O)OC)cs2)cc1 [Compound 1],synergistic effects on breast cancer cell viability compared to each inhibitor alone,,synergistic effects
same,synergistic effects on breast cancer cell viability compared to each inhibitor alone,listed as compound 1,the synergistic effect is pronounced
